Read-outs that look alike come from different tables or passages of the source.
Assays:
[1] = target: T1, hNPY2R (Homo sapiens, UniProt P49146); assay: hNPY2R CreLuc assay in 0.5% and 100% plasma (HEK-293 CRE-luciferase reporter cells); format: cell-based; details: HEK-293 reporter cells
T1 construct: expressed in transfected cells; host or cells: HEK-293 CRE-luciferase reporter cells
T1 sequence (P49146 1-381): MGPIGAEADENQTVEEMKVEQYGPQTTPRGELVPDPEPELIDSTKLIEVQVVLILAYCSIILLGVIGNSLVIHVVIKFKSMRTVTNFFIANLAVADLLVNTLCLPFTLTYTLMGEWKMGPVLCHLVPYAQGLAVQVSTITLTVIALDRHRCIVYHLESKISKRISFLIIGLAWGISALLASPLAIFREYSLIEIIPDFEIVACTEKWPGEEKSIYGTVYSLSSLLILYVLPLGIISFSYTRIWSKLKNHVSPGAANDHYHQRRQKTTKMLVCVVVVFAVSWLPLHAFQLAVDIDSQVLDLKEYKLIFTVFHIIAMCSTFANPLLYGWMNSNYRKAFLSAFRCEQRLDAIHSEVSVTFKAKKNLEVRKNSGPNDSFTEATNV

[2] = target: T2, hGLP1R (Homo sapiens, UniProt P43220); assay: hGLP1R CreLuc assay in 0.5% and 100% plasma (HEK-293 CRE-luciferase reporter cells); format: cell-based; details: HEK-293 reporter cells
T2 construct: expressed in transfected cells; host or cells: HEK-293 CRE-luciferase reporter cells

[3] = target: T3, hGIPR (Homo sapiens, UniProt P48546); assay: hGIPR CreLuc assay in 0.5% and 100% plasma (CHO CRE-luciferase reporter cells); format: cell-based
T3 construct: expressed in transfected cells; host or cells: CHO CRE-luciferase reporter cells
T3 sequence (P48546 22-466): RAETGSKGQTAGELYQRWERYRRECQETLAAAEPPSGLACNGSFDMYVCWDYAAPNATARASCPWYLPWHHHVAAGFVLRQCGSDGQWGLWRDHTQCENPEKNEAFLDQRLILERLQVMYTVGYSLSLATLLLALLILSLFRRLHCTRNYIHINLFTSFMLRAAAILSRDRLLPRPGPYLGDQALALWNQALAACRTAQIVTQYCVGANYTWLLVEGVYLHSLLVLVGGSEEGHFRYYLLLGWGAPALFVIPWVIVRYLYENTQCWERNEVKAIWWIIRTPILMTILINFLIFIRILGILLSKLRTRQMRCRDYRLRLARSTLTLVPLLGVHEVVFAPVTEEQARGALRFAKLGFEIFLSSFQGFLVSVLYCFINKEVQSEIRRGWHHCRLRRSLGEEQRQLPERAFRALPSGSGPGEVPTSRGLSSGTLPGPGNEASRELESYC

[4] = Solubility in 0.1 M phosphate buffer at pH 7; format: physicochemical; details: 0.1 M phosphate buffer at pH 7, 10 mg/mL final peptide concentration, shaking 2 hours at room temperature, peptides as TFA-salts; measured sample pH 6.5-7.0
[5] = 0.5% human plasma, read-out: hNPY2R 0.5% hP
[6] = 0.5% human plasma, read-out: hGLP1R 0.5% hP
[7] = 0.5% human plasma, read-out: hGIPR 0.5% hP
[8] = 100% human plasma, read-out: hNPY2R 100% hP

T2 sequence (P43220 24-463): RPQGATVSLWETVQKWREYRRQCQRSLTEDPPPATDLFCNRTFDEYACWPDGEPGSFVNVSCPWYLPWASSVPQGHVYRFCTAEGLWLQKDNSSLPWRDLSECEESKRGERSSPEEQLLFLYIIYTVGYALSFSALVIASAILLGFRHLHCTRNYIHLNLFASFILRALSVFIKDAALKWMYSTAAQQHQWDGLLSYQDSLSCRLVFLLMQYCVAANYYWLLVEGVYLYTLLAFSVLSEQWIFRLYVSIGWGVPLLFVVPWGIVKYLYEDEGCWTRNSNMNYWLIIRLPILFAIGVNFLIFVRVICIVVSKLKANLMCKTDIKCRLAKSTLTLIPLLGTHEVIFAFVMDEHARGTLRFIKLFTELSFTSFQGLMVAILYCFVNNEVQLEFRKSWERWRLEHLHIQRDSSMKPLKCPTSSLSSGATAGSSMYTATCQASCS

Row | SMILES | EC50 [1, 5] [nM] | EC50 [2, 6] [nM] | EC50 [3, 7] [nM] | solubility at 2 h [4] [µg/mL] | EC50 [1, 8] [nM] | EC50 ([2]; 100% human plasma, read-out: hGLP1R 100% hP) [nM] | EC50 ([3]; 100% human plasma, read-out: hGIPR 100% hP) [nM]
1 | CC[C@H](C)[C@H](NC(=O)[C@H](CC(C)C)NC(=O)[C@H](Cc1c[nH]cn1)NC(=O)[C@H](CCCNC(=N)N)NC(=O)[C@@H](NC(=O)[C@H](Cc1ccccc1)NC(=O)[C@H](CCC(=O)O)NC(=O)C(C)(C)NC(=O)[C@H](CCC(N)=O)NC(=O)[C@H](C)NC(=O)[C@H](CCC(N)=O)NC(=O)[C@H](CCCCN)NC(=O)[C@H](CC(=O)O)NC(=O)[C@H](CC(C)C)NC(=O)C(C)(C)NC(=O)[C@@H](NC(=O)[C@H](CO)NC(=O)[C@H](Cc1ccc(O)cc1)NC(=O)[C@H](CC(=O)O)NC(=O)[C@H](CO)NC(=O)[C@@H](NC(=O)[C@H](Cc1ccccc1)NC(=O)[C@@H](NC(=O)CNC(=O)[C@H](CCC(=O)O)NC(=O)C(C)(C)NC(=O)[C@@H](N)Cc1ccc(O)cc1)[C@@H](C)O)[C@@H](C)O)[C@@H](C)CC)C(C)C)C(=O)N[C@@H](CC(N)=O)C(=O)N[C@@H](CCCCNC(=O)[C@@H](N)CCCCNC(=O)CC[C@H](NC(=O)CC[C@H](NC(=O)CC[C@H](NC(=O)CC[C@H](NC(=O)CC[C@H](NC(=O)CC[C@H](NC(=O)CCCCCCCCCCCCCCCCC(=O)O)C(=O)O)C(=O)O)C(=O)O)C(=O)O)C(=O)O)C(=O)O)C(=O)NC(C)(C)C(=O)N[C@H](C(=O)N[C@@H](CCCNC(=N)N)C(=O)N[C@@H](CCC(N)=O)C(=O)N[C@@H](CCCNC(=N)N)C(=O)N[C@@H](Cc1ccc(O)cc1)C(N)=O)[C@@H](C)O [Compound 131, Y-Aib-E-G-T-F-T-S-D-Y-S-I-Aib-L-D-K-Q-A-Q-Aib-E-F-V-R-H-L-I-N-K(1,3)-Aib-T-R-Q-R-Y-NH2.C18DA-gGlu-gGlu-gGlu-gGlu-gGlu-gGlu-eLys(1,2)] | 17.5 | 0.1 | 0.3 | 9000 |  |  | 
2 | CC[C@H](C)[C@H](NC(=O)[C@H](CC(C)C)NC(=O)[C@H](Cc1c[nH]cn1)NC(=O)[C@H](CCCNC(=N)N)NC(=O)[C@@H](NC(=O)[C@H](Cc1ccccc1)NC(=O)[C@H](C)NC(=O)[C@H](Cc1ccc(O)cc1)NC(=O)[C@H](CCC(N)=O)NC(=O)[C@H](C)NC(=O)[C@H](CCC(N)=O)NC(=O)[C@H](CCCCN)NC(=O)[C@H](CCC(=O)O)NC(=O)[C@H](CC(C)C)NC(=O)C(C)(C)NC(=O)[C@@H](NC(=O)[C@H](CO)NC(=O)[C@H](Cc1ccc(O)cc1)NC(=O)[C@H](CC(=O)O)NC(=O)[C@H](CO)NC(=O)[C@@H](NC(=O)[C@H](Cc1ccccc1)NC(=O)[C@@H](NC(=O)CNC(=O)[C@H](CCC(=O)O)NC(=O)C(C)(C)NC(=O)[C@@H](N)Cc1ccc(O)cc1)[C@@H](C)O)[C@@H](C)O)[C@@H](C)CC)C(C)C)C(=O)N[C@@H](CC(N)=O)C(=O)N[C@@H](CCCCNC(=O)[C@@H](N)CCCCNC(=O)CC[C@H](NC(=O)CC[C@H](NC(=O)CC[C@H](NC(=O)CC[C@H](NC(=O)CC[C@H](NC(=O)CC[C@H](NC(=O)CCCCCCCCCCCCCCCCC(=O)O)C(=O)O)C(=O)O)C(=O)O)C(=O)O)C(=O)O)C(=O)O)C(=O)NC(C)(C)C(=O)N[C@H](C(=O)N[C@@H](CCCNC(=N)N)C(=O)N[C@@H](CCC(N)=O)C(=O)N[C@@H](CCCNC(=N)N)C(=O)N[C@@H](Cc1ccc(O)cc1)C(N)=O)[C@@H](C)O [Compound 151, Y-Aib-E-G-T-F-T-S-D-Y-S-I-Aib-L-E-K-Q-A-Q-Y-A-F-V-R-H-L-I-N-K(1,3)-Aib-T-R-Q-R-Y-NH2.C18DA-gGlu-gGlu-gGlu-gGlu-gGlu-gGlu-eLys(1,2)] |  |  | 0.5 | 10300 | 89.8 | 7 | 5.6
3 | CC[C@H](C)[C@H](NC(=O)[C@H](CC(C)C)NC(=O)[C@H](Cc1c[nH]cn1)NC(=O)[C@H](CCCNC(=N)N)NC(=O)[C@@H](NC(=O)[C@H](Cc1ccccc1)NC(=O)[C@H](C)NC(=O)C(C)(C)NC(=O)[C@H](CCC(N)=O)NC(=O)[C@H](C)NC(=O)[C@H](CCC(N)=O)NC(=O)[C@H](CCCCN)NC(=O)[C@H](CCC(=O)O)NC(=O)[C@H](CC(C)C)NC(=O)C(C)(C)NC(=O)[C@@H](NC(=O)[C@H](CO)NC(=O)[C@H](Cc1ccc(O)cc1)NC(=O)[C@H](CC(=O)O)NC(=O)[C@H](CO)NC(=O)[C@@H](NC(=O)[C@H](Cc1ccccc1)NC(=O)[C@@H](NC(=O)CNC(=O)[C@H](CCC(=O)O)NC(=O)C(C)(C)NC(=O)[C@@H](N)Cc1ccc(O)cc1)[C@@H](C)O)[C@@H](C)O)[C@@H](C)CC)C(C)C)C(=O)N[C@@H](CC(N)=O)C(=O)N[C@@H](CCCCNC(=O)CCCCCNC(=O)CC[C@H](NC(=O)CC[C@H](NC(=O)CC[C@H](NC(=O)CC[C@H](NC(=O)CC[C@H](NC(=O)CCCCCCCCCCCCCCCCCCC(=O)O)C(=O)O)C(=O)O)C(=O)O)C(=O)O)C(=O)O)C(=O)NC(C)(C)C(=O)N[C@H](C(=O)N[C@@H](CCCNC(=N)N)C(=O)N[C@@H](CCC(N)=O)C(=O)N[C@@H](CCCNC(=N)N)C(=O)N[C@@H](Cc1ccc(O)cc1)C(N)=O)[C@@H](C)O [Compound 167, Y-Aib-E-G-T-F-T-S-D-Y-S-I-Aib-L-E-K-Q-A-Q-Aib-A-F-V-R-H-L-I-N-K(1,3)-Aib-T-R-Q-R-Y-NH2.C20DA-gGlu-gGlu-gGlu-gGlu-gGlu-AHX(1,2)] | 13.3 | 1 | 0.2 | 10000 |  |  | 

Results, then the compound that gave them:

Row | EC50 [1, 5] [nM] | EC50 [2, 6] [nM] | EC50 [3, 7] [nM] | solubility at 2 h [4] [µg/mL] | EC50 [1, 8] [nM] | EC50 ([2]; 100% human plasma, read-out: hGLP1R 100% hP) [nM] | EC50 ([3]; 100% human plasma, read-out: hGIPR 100% hP) [nM] | SMILES
4 |  | 1 | 0.2 | 5000 | 89.8 |  |  | CC[C@H](C)[C@H](NC(=O)[C@H](CC(C)C)NC(=O)[C@H](Cc1c[nH]cn1)NC(=O)[C@H](CCCNC(=N)N)NC(=O)[C@@H](NC(=O)[C@H](Cc1ccccc1)NC(=O)[C@H](C)NC(=O)C(C)(C)NC(=O)[C@H](CCC(N)=O)NC(=O)[C@H](C)NC(=O)[C@H](CCC(N)=O)NC(=O)[C@H](CCCCN)NC(=O)[C@H](CCC(=O)O)NC(=O)[C@H](CC(C)C)NC(=O)C(C)(C)NC(=O)[C@@H](NC(=O)[C@H](CO)NC(=O)[C@H](Cc1ccc(O)cc1)NC(=O)[C@H](CC(=O)O)NC(=O)[C@H](CO)NC(=O)[C@@H](NC(=O)[C@H](Cc1ccccc1)NC(=O)[C@@H](NC(=O)CNC(=O)[C@H](CCC(=O)O)NC(=O)C(C)(C)NC(=O)[C@@H](N)Cc1ccc(O)cc1)[C@@H](C)O)[C@@H](C)O)[C@@H](C)CC)C(C)C)C(=O)N[C@@H](CC(N)=O)C(=O)N[C@@H](CCCCNC(=O)[C@@H](N)CCCCNC(=O)CC[C@H](NC(=O)CC[C@H](NC(=O)CC[C@H](NC(=O)CC[C@H](NC(=O)CC[C@H](NC(=O)CC[C@H](NC(=O)CCCCCCCCCCCCCCCCC(=O)O)C(=O)O)C(=O)O)C(=O)O)C(=O)O)C(=O)O)C(=O)O)C(=O)NC(C)(C)C(=O)N[C@H](C(=O)N[C@@H](CCCNC(=N)N)C(=O)N[C@@H](CCC(N)=O)C(=O)N[C@@H](CCCNC(=N)N)CC(=O)N[C@@H](Cc1ccc(O)cc1)C(N)=O)[C@@H](C)O [Compound 146, Y-Aib-E-G-T-F-T-S-D-Y-S-I-Aib-L-E-K-Q-A-Q-Aib-A-F-V-R-H-L-I-N-K(1,3)-Aib-T-R-Q-bhArg-Y-NH2.C18DA-gGlu-gGlu-gGlu-gGlu-gGlu-gGlu-eLys(1,2)]
5 | 40 | 0.1 | 0.1 | 8200 |  |  |  | CC[C@H](C)[C@H](NC(=O)[C@H](CC(C)C)NC(=O)[C@H](Cc1ccc(O)cc1)NC(=O)[C@H](CCCNC(=N)N)NC(=O)[C@@H](NC(=O)[C@H](Cc1ccccc1)NC(=O)[C@H](C)NC(=O)C(C)(C)NC(=O)[C@H](CCC(N)=O)NC(=O)[C@H](C)NC(=O)[C@H](CCC(N)=O)NC(=O)[C@H](CCCCN)NC(=O)[C@H](CC(=O)O)NC(=O)[C@H](CC(C)C)NC(=O)C(C)(C)NC(=O)[C@@H](NC(=O)[C@H](CO)NC(=O)[C@H](Cc1ccc(O)cc1)NC(=O)[C@H](CC(=O)O)NC(=O)[C@H](CO)NC(=O)[C@@H](NC(=O)[C@H](Cc1ccccc1)NC(=O)[C@@H](NC(=O)CNC(=O)[C@H](CCC(=O)O)NC(=O)C(C)(C)NC(=O)[C@@H](N)Cc1ccc(O)cc1)[C@@H](C)O)[C@@H](C)O)[C@@H](C)CC)C(C)C)C(=O)N[C@@H](CC(N)=O)C(=O)N[C@@H](CCCCNC(=O)[C@@H](N)CCCCNC(=O)CC[C@H](NC(=O)CC[C@H](NC(=O)CC[C@H](NC(=O)CC[C@H](NC(=O)CC[C@H](NC(=O)CC[C@H](NC(=O)CCCCCCCCCCCCCCCCC(=O)O)C(=O)O)C(=O)O)C(=O)O)C(=O)O)C(=O)O)C(=O)O)C(=O)NC(C)(C)C(=O)N[C@H](C(=O)N[C@@H](CCCNC(=N)N)C(=O)N[C@@H](CCC(N)=O)C(=O)N[C@@H](CCCNC(=N)N)C(=O)N[C@@H](Cc1ccc(O)cc1)C(N)=O)[C@@H](C)O [Compound 153, Y-Aib-E-G-T-F-T-S-D-Y-S-I-Aib-L-D-K-Q-A-Q-Aib-A-F-V-R-Y-L-I-N-K(1,3)-Aib-T-R-Q-R-Y-NH2.C18DA-gGlu-gGlu-gGlu-gGlu-gGlu-gGlu-eLys(1,2)]

From US20250382344A1, “Soluble GLP1/GIP/NPY2 Receptor Triple Agonists” (Boehringer Ingelheim International GmH, priority 2024, published 2025)
